# Patent publication US20250195490A1, “ALPHA-METHYLENE AND AMINOMETHYL LACTONES AND LACTAMS FOR TREATMENT OF CLOSTRIDIOIDES DIFFICILE INFECTION (CDI)” (Purdue Research Foundation, priority 2022, published 2025)
# Assays:
# E. faecalis (VRE) = assay: microbe, parasite or virus in culture; format: cell-based, Enterococcus faecalis; settings: aerobic, 37° C., at least 18 hours
# Experimental: (§1) Method: The minimum inhibitory concentration (MIC) of the compounds and control drugs, linezolid (antibiotic), vancomycin (antibiotic), 5-fluorocytosine (5-FC, antifungal drug), and fluconazole (antifungal drug) was determined using the broth microdilution method according to the guidelines outlined by the Clinical and Laboratory Standards Institute (CLSI) against clinically relevant bacterial (methicillin-resistant Staphylococcus aureus (MRSA), vancomycin-resistant Enterococcus faecalis (VRE), vancomycin-resistant Enterococcus faecium (VRE), Clostridioides difficile and Escherichia coli) and fungal (Candida albicans) strains. A solution equivalent to 0.5 McFarland standard was prepared from each strain and diluted in cation-adjusted Mueller-Hinton broth (for S. aureus and E. coli), tryptone soy broth (for E. faecalis), or brain heart infusion broth (for E. faecium) to achieve a bacterial inoculum of about 5×10^5 CFU/mL. C. difficile strains were cultured in brain heart infusion broth supplemented with hemin and vitamin K. C. albicans was diluted in RPMI medium supplemented with 3-(N-morpholino) propanesulfonic acid to achieve a fungal concentration of about 1.5×10^3 CFU/mL. Compounds and control drugs were added in the first row of the 96-well plates and diluted with media containing bacteria (to achieve a concentration gradient ranging from 128 to 1 μg/mL). For MRSA, VRE, and E. coli strains, plates were then incubated aerobically at 37° C. for at least 18 hours. C. albicans was incubated aerobically at 37° C. for 24 hours. Plates containing C. difficile were incubated anaerobically at […] for 48 hours.
# E. coli (TolC mutant) = assay: MIC by broth microdilution against E. coli (TolC mutant); format: cell-based, Escherichia coli; settings: aerobic, 37° C., at least 18 hours
# Experimental: as §1
# C. albicans = assay: Broth microdilution against Candida albicans; format: cell-based; settings: gradient 128 to 1 μg/mL, 24 hours
# Experimental: as §1
# E. faecium = assay: Broth microdilution against vancomycin-resistant E. faecium; format: cell-based, Enterococcus faecium; settings: gradient 128 to 1 μg/mL
# Experimental: as §1
# C. difficile ATCC 43255 [1] = assay: Antibiotic-induced C. difficile-associated diarrhea mouse model; format: in vivo, C57BL/6 mice; settings: 10 mg/kg by gavage daily for 5 days; two mouse models (protocols A and B)
# Experimental: Preliminary in vivo experiments were carried out in two mouse models of antibiotic-induced C. difficile-associated diarrhea and two recurrence models to ensure the feasibility of using this new class of antibiotic orally against C. difficile infection.
# Groups of 12-weeks-old female C57BL/6 mice were sensitized to CDI with two different protocols. A—Mice were given antibiotic cocktail containing gentamicin (0.035 mg/mL), kanamycin (0.4 mg/ml), metronidazole (0.215 mg/mL), colistin (850 U/mL), and vancomycin (0.045 mg/mL) in drinking water for 5 days. Then mice were treated with clindamycin (10 mg/kg) two days after withdrawal of the antibiotic cocktail. One day after clindamycin treatment, mice were infected orally with 1.9×10^6 CFU spore suspension of C. difficile ATCC 43255 [32]. Two hours after infection, animals were divided into groups (n=10), and groups received either vehicle (sterile water), Compound 27 (10 mg/kg), or vancomycin (10 mg/kg) by gavage daily for 5 days. B— In the second protocol mice were sensitized to CDI with cefoperazone (1.5 mg/mL) in the drinking water for 10 days. Afterwards, mice were switched to regular water for 2 days, followed by injecting clindamycin (10 mg/kg) intraperitoneally. One day after clindamycin treatment, mice were infected and treated as group A above.
# C. difficile ATCC 43255 [2] = assay: CDI mouse recurrence model; format: in vivo, C57BL/6 mice; settings: for signs of disease during therapy / survival by day 11: 10 mg/kg daily for 5 days
# Text: For mouse recurrence, two models were used for testing the efficacy of aminomethyllactone 27 for preventing recurrence after treatment with vancomycin. The two models used were A—Chen et al model and B— a more aggressive protocol that was developed using modified Chen et al. protocol antibiotic cocktail (applying 3× times the doses of the antibiotics). In brief, groups of 12-weeks-old female C57BL/6 mice were sensitized to CDI by giving either the antibiotic cocktail described above or 3× the dose of antibiotics cocktail in the drinking water for 5 days. Then mice were treated with clindamycin (10 mg/kg) two days after withdrawal of the antibiotic cocktail. One day after clindamycin treatment, mice were infected orally with 1.9×10^6 CFU spore suspension of C. difficile ATCC 43255 [32]. Two hours after infection, animals were divided into groups (n=10), and groups received either Compound 27 (10 mg/kg) or vancomycin (10 mg/kg) by gavage daily for 5 days. Treatment was stopped at day 5, and mice were monitored for an additional 23 days. […] However, from day 9 onward (4 days after vancomycin was discontinued), vancomycin-treated mice developed CDI. By day 11, only 60% of the mice treated with vancomycin had survived in the original protocol (lx antibiotic), and there was 0% survival in the aggressive antibiotic protocol (3× antibiotic). […] Symptomatic recurrence of CDI occurs in approximately 20% of patients and is challenging to treat. In addition to subsequent prolongation of C. difficile shedding and transmission, 1 out of every 5 patients with CDI, who experienced a recurrence of the infection, died within 30 days of diagnosis. Compound 27, which reduces recurrences, can potentially prolong the clinical utility of current antibiotics (vancomycin and fidaxomicin).
SMILES,MIC E. faecalis (VRE) (E. faecalis (VRE)) [µg/mL],MIC E. coli (TolC mutant) (E. coli (TolC mutant)) [µg/mL],activity against C. albicans (C. albicans),inhibition of the tested strains of E. faecium (E. faecium),protection (C. difficile ATCC 43255 [1]) [%],signs of disease during therapy (C. difficile ATCC 43255 [2]),"survival of mice (C. difficile ATCC 43255 [2]; 28 days, 10 mg/kg oral daily for 5 days) [%]","recurrence of CDI (C. difficile ATCC 43255 [2]; for 28 days, 10 mg/kg oral daily for 5 days)",survival by day 11 (C. difficile ATCC 43255 [2]; aggressive antibiotic protocol (3× antibiotic)) [%],survival by day 11 (C. difficile ATCC 43255 [2]; original protocol (1x antibiotic)) [%],day from which treated mice developed CDI (C. difficile ATCC 43255 [2]; treatment stopped at day 5) [days]
COc1cc(C2OC(=O)C(CN3CCCCC3)C2c2ccccc2Br)ccc1OCc1ccccc1 (racemic) [Compound 27],>128,>128,inactive,did not inhibit,100,no signs of disease,100,no recurrence,–,–,–
C=C1C(=O)O[C@H](c2ccccc2O)[C@@H]1c1cccc(C#N)c1 (racemic) [Compound 50],>128,>128,inactive,did not inhibit,–,–,–,–,–,–,–
"CN[C@H](CC(C)C)C(=O)N[C@H]1C(=O)N[C@@H](CC(N)=O)C(=O)N[C@H]2C(=O)N[C@H]3C(=O)N[C@H](C(=O)N[C@H](C(=O)O)c4cc(O)cc(O)c4-c4cc3ccc4O)[C@H](O)c3ccc(c(Cl)c3)Oc3cc2cc(c3O[C@@H]2O[C@H](CO)[C@@H](O)[C@H](O)[C@H]2O[C@H]2C[C@](C)(N)[C@H](O)[C@H](C)O2)Oc2ccc(cc2Cl)[C@H]1O [Vancomycin, reference compound]",–,–,–,–,100,no signs of disease,–,–,0,60,≥ 9
